Data published in paper PMC2839369 (Chimia, 2009).

Biological target: thymidine kinase from Thermotoga maritima (TmTK) (Thermotoga maritima, UniProt Q9WYN2)
Test: crystal structures and activity
Assay type: binding
Conditions: phosphoryl donor site

Sequence of thymidine kinase from Thermotoga maritima (TmTK) (Q9WYN2 whole entry): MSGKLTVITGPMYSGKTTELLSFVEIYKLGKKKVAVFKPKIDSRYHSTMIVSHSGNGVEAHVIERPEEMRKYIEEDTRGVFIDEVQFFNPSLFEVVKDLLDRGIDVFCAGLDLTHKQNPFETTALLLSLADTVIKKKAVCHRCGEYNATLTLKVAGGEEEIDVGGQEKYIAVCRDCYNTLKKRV

## Nc1ncnc2c1ncn2[C@@H]1O[C@H](COP(=O)(O)OP(=O)(O)OP(=O)(O)O)[C@@H](O)[C@H]1O [ATP]
  crystal structures and activity (summary of authors' earlier work): large conformational change in the native homotetramer associated with ATP binding
